Structures can show the parent of a compound that is named as a salt.
Tests used:
[1] = in vitro; conditions: pH 7.4; for % Remaining at 60 min (Buffer) / % Remaining at 60 min (+NADPH) / % Remaining at 60 min (−NADPH) / Percentage turnover in MLM (percent remaining), 60 min: 1 h; for % Remaining at 60 min (Buffer) / CLh, int / Percentage turnover in MLM (percent remaining), 0 min / Percentage turnover in MLM (percent remaining), 5 min / Percentage turnover in MLM (percent remaining), 15 min / Percentage turnover in MLM (percent remaining), 30 min / % Remaining at 60 min (+NADPH) / % Remaining at 60 min (−NADPH) / Percentage turnover in MLM (percent remaining), 60 min / Metabolic stability in liver microsomes, compound remaining: 1 μM; for CLh, int / Percentage turnover in MLM (percent remaining), 0 min / Percentage turnover in MLM (percent remaining), 5 min / Percentage turnover in MLM (percent remaining), 15 min / Percentage turnover in MLM (percent remaining), 30 min / % Remaining at 60 min (+NADPH) / % Remaining at 60 min (−NADPH) / Percentage turnover in MLM (percent remaining), 60 min / Metabolic stability in liver microsomes, compound remaining / half-life at 1 μM: mouse; for Percentage turnover in MLM (percent remaining), 0 min / Percentage turnover in MLM (percent remaining), 5 min / Percentage turnover in MLM (percent remaining), 15 min / Percentage turnover in MLM (percent remaining), 30 min / % Remaining at 60 min (+NADPH) / % Remaining at 60 min (−NADPH) / Percentage turnover in MLM (percent remaining), 60 min / Metabolic stability in liver microsomes, compound remaining / half-life at 1 μM: microsomes; for Percentage turnover in MLM (percent remaining), 0 min: 0 h; for Percentage turnover in MLM (percent remaining), 15 min: 0.25 h; for Percentage turnover in MLM (percent remaining), 30 min: 0.5 h; for Metabolic stability in liver microsomes, compound remaining: 60 min
Method: The objective of the study was to evaluate the metabolic stability of test compounds in liver microsomes from mice (MLM). This was accomplished by incubating test compounds with microsomes and monitoring disappearance with time using LCMS/MS. Imipramine in MLM was run as positive control.
Potassium phosphate buffer (Kphos) was prepared by adding 0.647 g potassium phosphate monobasic (KH2PO4) and 3.527 g potassium phosphate dibasic (K2HPO4) to 400 mL of Milli-Q water. pH of the buffer was adjusted to 7.4 and volume was made up to 500 mL.
Stock solutions of test compounds were prepared in DMSO at a concentration of 1 mM.
From the above mix, 70 μL was added to individual wells of 96 well reaction plates and pre-incubated at 37° C. for 5 min. […] Reactions without NADPH and buffer controls (minus NADPH) at 0 minutes and 60 minutes were also incubated to rule out non-NADPH metabolism or chemical instability in the incubation buffer. All reactions were terminated using 100 μL of ice-cold acetonitrile containing internal standard (glipizide) at 0, 5, 15, 30 and 60 minutes.
Samples were monitored for parent compounds disappearance in MRM mode using LC-MS/MS.
The percent remaining of test compounds and positive control in each sample was determined by considering peak area ratio in the 0 minute sample as 100%.
In vitro intrinsic clearance (CL'int) (units in mL/min/kg) was also calculated.

[2] = tested on: mice plasma; assay: in vitro; type: in vitro ADME; conditions: mouse, plasma, 4 h, 5 μM
Method: (§1) The objective of this study was to evaluate protein binding test compounds in mice plasma. This was accomplished by spiking the test compounds at a concentration of 5 μM into mice plasma and dialyzing against buffer until equilibrium is achieved (4 hours). Analyte area ratios of the test compounds in plasma and buffer were determined to calculate unbound and bound percentages of compound to the plasma proteins.
(§2) Phosphate buffered saline pack (0.1 M sodium phosphate and 0.15 M sodium chloride, pH 7.2) was dissolved in 500 mL of deionized water and pH was adjusted to 7.4 with 0.5 N NaOH.
(§3) 1 mM stock solutions were prepared in DMSO and diluted 200-folds in mice plasma to prepare a concentration of 5 μM. The final DMSO concentration in plasma was 0.5%.
(§4) Rapid equilibrium dialysis was performed with a rapid equilibrium dialysis (RED) device containing dialysis membrane with a molecular weight cut-off of 8,000 Daltons. Each dialysis insert contains two chambers. The red chamber is for plasma while the white chamber is for buffer.
(§5) A 200 μL aliquot of warfarin and test compound at 5 (triplicates) were separately added to the plasma chamber and 350 μL of phosphate buffer saline (pH 7.4) was added to the buffer chamber of the inserts. After sealing the RED device with an adhesive film, dialysis was performed in incubator at 37° C. with shaking at 100 RPM for 4 hours.
(§6) A 50 μL aliquot of warfarin and test compounds were added to four 0.5 mL microfuse tubes. Two aliquots were frozen immediately (0 minute sample). The other two aliquots were incubated at 37° C. for 4 hours along with the RED device.
(§7) Following dialysis, an aliquot of 50 μL was removed from each well (both plasma and buffer side) and diluted with equal volume of opposite matrix (dialyzed with the other matrix) to nullify the matrix effect. Similarly, 50 μL of buffer was added to recovery and stability samples. An aliquot of 100 μL was submitted for LCMS/MS analysis.
(§8) A 25 μL aliquot of warfarin and test compounds were crashed with 100 μL of acetonitrile containing internal standard (glipizide) and vortexed for 5 minutes. The samples were centrifuged at 4000 RPM at 4° C. for 10 min and 100 μL of supernatant was submitted for LC-MS/MS analysis. Samples were monitored for parent compound in MRM mode using LC-MS/MS.
(§9) The peak area ratios (analyte versus internal standard) obtained were used to determine the fraction of compound bound to plasma proteins.

[3] = in vitro; type: in vitro ADME, mice; conditions: mouse; for recovery at 4 h, 5 µM: pH 7.4; for fraction unbound at 4 h, 5 μM: plasma
Method: as §1, §2, §3, §4, §5, §6, §7, §8, §9

[4] = tested on: phospho-RB; assay: Western blotting of phospho-RB levels in GBM spheres; type: cell-based, human; conditions: GBM spheres, 72 hours, Western blotting
Method: Cells were lysed in Cell Lysis Buffer (Cell Signaling, #9803) supplemented with Protease Inhibitor Cocktail (Sigma, #P8340), sonicated briefly while on ice and spun down for 30 minutes at 4° C., after which the supernatant was collected. For each sample, 2 uL of lysate was mixed well into 198 uL de-ionized water. Next, 10 uL of this diluted sample was added to a well in a 96 well plate in quadruplets and mixed with Protein Assay Dye Reagent Concentrate (Bio-Rad, #500-0006) (which was diluted 1:5 with water). BSA standards of 25 ng, 50 ng, 100 ng, 200 ng and 250 ng were also used to the plate and mixed with the reagent. The plate was read in a plate reader at 600 nm and samples were calibrated to the standards to determine the concentration of protein. Using the NuPAGE system (Invitrogen), 25 ug of protein was mixed with NuPAGE LDS 4× Sample Buffer (#NP0007), NuPAGE 10× Reducing Agent (#NP0004) and water, mixed well and heated at 96° C. for 15 minutes to denature the protein. The samples were then loaded into 4-12% Bis-Tris gels (Novex (Invitrogen), #0323) with a protein ladder (Novex (Invitrogen) Sharp Pre-stained protein ladder, #57318) and run at 100-120V for about 2 hours with NuPAGE 20×SDS MES Running Buffer (#NP0002) diluted with water. Next, the gel was taken out and loaded into a NuPAGE transfer cassette with a polyvinylidene membrane with NuPAGE 20× Transfer Buffer (#NP0006-1) diluted with water and methanol. Proteins were transferred for 1 hour at 30V at room temperature. Blocking was performed using the Millipore SNAP i.d. Protein Detection system in 0.25% non-fat dry milk in 0.1% Tween in PBS (PBST). Primary antibodies against BMI1 (Cell Signaling, #6964), mouse monoclonal antiphospho-RB, anti-CDK4, anti-STAT1, anti-PD-L1 (1:1,000) (Millipore), and housekeeping control rabbit polyclonal anti-vinculin (1:1000) (Cell Signaling) were incubated overnight with gentle rocking at 4° C. in the blocking solution. The following day, membranes were washed 3 times with PBST in the SNAP i.d. system before being incubated with secondary antibody in blocking buffer for 1 hour at room temperature. Three washes were then performed in the SNAP i.d. system. Protein signals were detected using ECL Western Blotting Substrate (Pierce, #32106) and filmed.
GBM CSCs are known to be quiescent and therefore resistant to standard chemo/radiotherapy. The retinoblastoma (Rb) tumor suppressor protein regulates cell proliferation by controlling progression through the restriction point within the G1-phase of the cell cycle. Cell cycle-dependent phosphorylation for Ser780 by cyclin D1-CDK4/6 inhibits Rb target binding and allows cell cycle progression.

Structure (SMILES)	% Remaining at 60 min (Buffer) [1] [%]	CLh, int [1] [mL/min/kg]	Percentage turnover in MLM (percent remaining), 0 min [1] [%]	Percentage turnover in MLM (percent remaining), 5 min [1] [%]	Percentage turnover in MLM (percent remaining), 15 min [1] [%]	Percentage turnover in MLM (percent remaining), 30 min [1] [%]	% Remaining at 60 min (+NADPH) [1] [%]	% Remaining at 60 min (−NADPH) [1] [%]	Percentage turnover in MLM (percent remaining), 60 min [1] [%]	Metabolic stability in liver microsomes, compound remaining [1] [%]	half-life at 1 μM [1] [min]	% compound remaining at 4 hrs [2] [%]	recovery at 4 h, 5 µM ([3]; Plasma) [%]	fraction unbound at 4 h, 5 μM ([3]; pH 7.4, % Bound Mean ± SD)	fraction unbound at 4 h, 5 μM ([3]; pH 7.4, % Bound R1)	fraction unbound at 4 h, 5 μM ([3]; pH 7.4, % Bound R2)	fraction unbound at 4 h, 5 μM ([3]; pH 7.4, % Bound R3)	fraction unbound at 4 h, 5 μM ([3]; pH 7.4, PPB at 4 h)	recovery at 4 h, 5 µM [3] [%]	phospho-RB (pRB) levels [4]
Cc1nc2ccccn2c1-c1csc(Nc2ccc3c(c2)OC(F)(F)O3)n1 [Compound 16, N-(2,2-difluorobenzo[d][1,3]dioxol-5-yl)-4-(2-methylimidazo[1,2-a]pyridin-3-yl)thiazol-2-amine hydrochloride]	87	759	100	83	58	35	6	62	6	< 50	15	76	117	0.01	0.01	0.01	0.011	0.24		
[2H]C1([2H])Oc2ccc(Nc3nc(-c4c(C)nc5ccccn45)cs3)cc2O1 [Compound 17, N-(benzo[d][1,3]dioxol-5-yl-2,2-d2)-4-(2-methylimidazo[1,2-c]pyridin-3-yl)thiazol-2-amine hydrochloride]	101	953	100	91	56	20	3	81	3	< 50	12	75		0.006	0.008	0.004	0.005	0.25	124	lowered pRB

— patent US12215106B2, “Pharmaceutical compounds and therapeutic methods” (RUTGERS, THE STATE UNIVERSITY OF NEW JERSEY, priority 2018, dated 2025)
